Experimental data taken from ChEMBL document CHEMBL1129087, “Novel phosphotyrosine mimetics in the design of peptide ligands for pp60src SH2 domain” (Bioorg Med Chem Lett, 1996).

Experiments:
[1] = target: T1, Proto-oncogene tyrosine-protein kinase Src (Homo sapiens, UniProt P12931); test: Binding affinity to p60 src SH2 domain.
[2] = target: Tyrosine-protein kinase ABL1 (Homo sapiens, UniProt P00519); test: Inhibition of Abl SH2 domain binding PDGF receptor
[3] = target: T1, Proto-oncogene tyrosine-protein kinase Src; test: Inhibition of src SH2 domain binding to PDGF receptor
[4] = target: T2, Tyrosine-protein phosphatase non-receptor type 11 (Homo sapiens, UniProt Q06124); test: Inhibition of Syp(N) SH2 domain block binding to PDGF receptor
T2 sequence (Q06124 whole entry): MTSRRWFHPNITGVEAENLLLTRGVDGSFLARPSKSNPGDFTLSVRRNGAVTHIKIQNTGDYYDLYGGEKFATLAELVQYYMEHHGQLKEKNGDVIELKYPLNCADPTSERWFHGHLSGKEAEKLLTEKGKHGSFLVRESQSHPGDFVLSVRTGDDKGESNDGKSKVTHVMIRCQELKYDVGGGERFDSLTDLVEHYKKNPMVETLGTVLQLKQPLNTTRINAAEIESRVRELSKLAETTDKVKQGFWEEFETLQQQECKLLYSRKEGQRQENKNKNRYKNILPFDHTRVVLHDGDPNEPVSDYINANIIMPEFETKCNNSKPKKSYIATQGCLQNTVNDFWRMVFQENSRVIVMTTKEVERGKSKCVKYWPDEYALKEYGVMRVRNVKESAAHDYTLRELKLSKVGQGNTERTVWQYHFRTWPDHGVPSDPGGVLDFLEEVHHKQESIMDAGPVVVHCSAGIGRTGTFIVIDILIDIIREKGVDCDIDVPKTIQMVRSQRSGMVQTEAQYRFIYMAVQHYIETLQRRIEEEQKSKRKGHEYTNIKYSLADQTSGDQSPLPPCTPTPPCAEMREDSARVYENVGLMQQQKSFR

[5] = Inhibition of PLC(C) SH2 domain binding to PDGF receptor
[6] = target: Growth factor receptor-bound protein 2 (Homo sapiens) (UniProt P62993); test: Inhibition of Grb2 SH2 domain binding to PDGF receptor 100 uM
[7] = target: Growth factor receptor-bound protein 2 (Homo sapiens) (UniProt P62993); test: Inhibition of Grb2 SH2 domain binding to PDGF receptor

T1 sequence (P12931 2-536 limits assumed): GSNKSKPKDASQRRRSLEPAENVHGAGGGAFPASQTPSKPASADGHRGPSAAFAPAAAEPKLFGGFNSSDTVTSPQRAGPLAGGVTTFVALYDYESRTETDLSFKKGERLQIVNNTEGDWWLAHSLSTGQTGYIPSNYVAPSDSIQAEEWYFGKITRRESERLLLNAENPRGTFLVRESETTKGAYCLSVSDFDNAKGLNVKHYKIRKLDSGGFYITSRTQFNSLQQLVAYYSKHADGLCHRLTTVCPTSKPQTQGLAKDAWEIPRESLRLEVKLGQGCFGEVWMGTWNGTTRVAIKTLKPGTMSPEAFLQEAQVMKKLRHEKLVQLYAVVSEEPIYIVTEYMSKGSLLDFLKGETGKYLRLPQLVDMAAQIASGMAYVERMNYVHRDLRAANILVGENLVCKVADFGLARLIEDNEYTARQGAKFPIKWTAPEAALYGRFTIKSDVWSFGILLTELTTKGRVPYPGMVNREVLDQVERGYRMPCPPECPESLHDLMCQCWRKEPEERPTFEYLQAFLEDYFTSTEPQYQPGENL
Chain of Tyrosine-protein kinase ABL1 (P00519 whole entry, the tested form may be a part): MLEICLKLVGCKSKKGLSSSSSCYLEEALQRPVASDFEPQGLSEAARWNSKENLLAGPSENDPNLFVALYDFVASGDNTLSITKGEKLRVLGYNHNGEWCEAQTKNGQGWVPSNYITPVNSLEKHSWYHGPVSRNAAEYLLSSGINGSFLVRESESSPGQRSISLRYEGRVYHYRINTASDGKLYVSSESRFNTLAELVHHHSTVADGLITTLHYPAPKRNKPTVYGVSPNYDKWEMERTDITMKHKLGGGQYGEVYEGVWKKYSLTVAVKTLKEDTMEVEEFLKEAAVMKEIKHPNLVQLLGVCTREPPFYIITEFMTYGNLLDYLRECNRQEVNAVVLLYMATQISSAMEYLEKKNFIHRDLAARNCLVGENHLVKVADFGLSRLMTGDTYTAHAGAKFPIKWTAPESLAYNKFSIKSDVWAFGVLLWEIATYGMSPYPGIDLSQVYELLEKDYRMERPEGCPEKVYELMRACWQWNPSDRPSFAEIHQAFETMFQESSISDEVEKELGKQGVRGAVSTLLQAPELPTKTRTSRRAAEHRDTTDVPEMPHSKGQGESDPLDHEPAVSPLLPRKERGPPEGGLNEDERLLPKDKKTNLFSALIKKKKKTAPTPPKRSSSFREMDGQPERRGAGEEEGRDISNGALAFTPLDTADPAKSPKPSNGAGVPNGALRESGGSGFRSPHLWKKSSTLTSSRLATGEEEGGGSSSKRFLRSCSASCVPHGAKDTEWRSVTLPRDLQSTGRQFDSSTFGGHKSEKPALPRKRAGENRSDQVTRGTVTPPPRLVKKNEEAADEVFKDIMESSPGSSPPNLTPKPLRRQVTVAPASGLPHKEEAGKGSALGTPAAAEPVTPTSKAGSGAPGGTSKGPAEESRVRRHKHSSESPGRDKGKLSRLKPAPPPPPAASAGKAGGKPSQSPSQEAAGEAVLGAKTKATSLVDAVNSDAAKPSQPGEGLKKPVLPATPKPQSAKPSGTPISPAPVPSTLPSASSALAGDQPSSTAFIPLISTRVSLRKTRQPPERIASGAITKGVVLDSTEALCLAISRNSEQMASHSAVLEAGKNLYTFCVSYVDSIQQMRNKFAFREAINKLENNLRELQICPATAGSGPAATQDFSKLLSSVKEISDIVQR

IC50 [1] [µM]	SMILES	other results
3.4	CC[C@H](C)[C@H](NC(=O)[C@H](CCC(=O)O)NC(=O)[C@H](CCC(=O)O)NC(=O)CCc1ccc(OP(=O)(O)O)cc1)C(=O)N[C@@H](CCC(=O)O)C(=O)O	
21.3	NC(=O)[C@H](Cc1c[nH]c2ccccc12)NC(=O)C(CCC(=O)O)NC(=O)CCc1ccc(OP(=O)(O)O)cc1 (some centres not stated)	
2.6	CC[C@H](C)[C@H](NC(=O)[C@H](CCC(=O)O)NC(=O)[C@H](CCC(=O)O)NC(=O)C(Cc1ccc(OP(=O)(O)O)cc1)c1cccc2ccccc12)C(=O)N[C@@H](CCC(=O)O)C(=O)O (stereo in doubt; form 2)	
1.9	CC[C@H](C)[C@H](NC(=O)[C@H](CCC(=O)O)NC(=O)[C@H](CCC(=O)O)NC(=O)C(Cc1ccc(OP(=O)(O)O)cc1)c1ccccc1)C(=O)N[C@@H](CCC(=O)O)C(=O)O (stereo in doubt) [listing 1 of 2 here]	IC50 [2]: > 100 µM; IC50 [3]: 7.35 µM; IC50 [4]: > 100 µM; IC50 [5]: > 100 µM
2.1	CC[C@H](C)[C@H](NC(=O)C(CCC(=O)O)NC(=O)C(CCC(=O)O)NC(=O)C(Cc1ccc(OP(=O)(O)O)cc1)c1cccc(O)c1)C(=O)N[C@@H](CCC(=O)O)C(=O)O (single isomer, unassigned; isomer 1)	
5	CC[C@H](C)[C@H](NC(=O)[C@H](CCC(=O)O)NC(=O)[C@H](CCC(=O)O)NC(=O)/C(=C/c1ccc(OP(=O)(O)O)cc1)C(=O)O)C(=O)N[C@@H](CCC(=O)O)C(=O)O	
4.5	CC[C@H](C)[C@H](NC(=O)[C@H](CCC(=O)O)NC(=O)[C@H](CCC(=O)O)NC(=O)CCc1c(C)cc(OP(=O)(O)O)cc1C)C(=O)N[C@@H](CCC(=O)O)C(=O)O	
28	NC(=O)[C@H](Cc1c[nH]c2ccccc12)NC(=O)C(CCC(=O)O)NC(=O)C(Cc1ccc(OP(=O)(O)O)cc1)c1ccccc1 (some centres not stated)	
5.5	CC[C@H](C)[C@H](NC(=O)[C@H](CCC(=O)O)NC(=O)[C@H](CCC(=O)O)NC(=O)/C=C/c1ccc(OP(=O)(O)O)cc1)C(=O)N[C@@H](CCC(=O)O)C(=O)O	
30	NC(=O)[C@H](Cc1c[nH]c2ccccc12)NC(=O)C(CCC(=O)O)NC(=O)/C=C/c1ccc(OP(=O)(O)O)cc1 (some centres not stated)	
2.8	CC[C@H](C)[C@H](NC(=O)[C@H](CCC(=O)O)NC(=O)[C@H](CCC(=O)O)NC(=O)C(Cc1ccc(OP(=O)(O)O)cc1)c1ccc2ccccc2c1)C(=O)N[C@@H](CCC(=O)O)C(=O)O (stereo in doubt)	
	CC[C@H](C)[C@H](NC(=O)[C@H](CCC(=O)O)NC(=O)[C@H](CCC(=O)O)NC(=O)[C@@H](Cc1ccc(OP(=O)(O)O)cc1)NC(C)=O)C(=O)N[C@@H](CCC(=O)O)C(=O)O	inhibition [6]: 45.2%; IC50 [2]: 15.3 µM; IC50 [4]: > 100 µM; IC50 [5]: > 100 µM
4.5	CC[C@H](C)[C@H](NC(=O)[C@H](CCC(=O)O)NC(=O)[C@H](CCC(=O)O)NC(=O)C(Cc1ccc(OP(=O)(O)O)cc1)c1ccc2ccccc2c1)C(=O)N[C@@H](CCC(=O)O)C(=O)O (single isomer, unassigned; isomer 2)	
30	Cc1cc(OP(=O)(O)O)cc(C)c1CCC(=O)NC(CCC(=O)O)C(=O)N[C@@H](Cc1c[nH]c2ccccc12)C(N)=O (some centres not stated)	
9.3	CC[C@H](C)[C@H](NC(=O)[C@H](CCC(=O)O)NC(=O)[C@H](CCC(=O)O)NC(=O)C(Cc1ccc(OP(=O)(O)O)cc1)c1ccccc1)C(=O)N[C@@H](CCC(=O)O)C(=O)O (single isomer, unassigned; isomer 2)	
	CC[C@H](C)[C@H](NC(=O)[C@H](CCC(=O)O)NC(=O)[C@H](CCC(=O)O)NC(=O)C(Cc1ccc(OP(=O)(O)O)cc1)c1ccccc1)C(=O)N[C@@H](CCC(=O)O)C(=O)O (stereo in doubt) [listing 2 of 2 here]	IC50 [7]: > 100 µM
3.3	CC[C@H](C)[C@H](NC(=O)C(CCC(=O)O)NC(=O)C(CCC(=O)O)NC(=O)C(Cc1ccc(OP(=O)(O)O)cc1)c1cccc(O)c1)C(=O)N[C@@H](CCC(=O)O)C(=O)O (stereo in doubt)	
0.35	CC[C@H](C)[C@H](NC(=O)[C@H](CCC(=O)O)NC(=O)[C@H](CCC(=O)O)NC(=O)[C@@H](CC(=O)O)Cc1ccc(OP(=O)(O)O)cc1)C(=O)N[C@@H](CCC(=O)O)C(=O)O	
7.3	CC[C@H](C)[C@H](NC(=O)[C@H](CCC(=O)O)NC(=O)[C@H](CCC(=O)O)NC(=O)C(Cc1ccc(OP(=O)(O)O)cc1)c1cccc2ccccc12)C(=O)N[C@@H](CCC(=O)O)C(=O)O (stereo in doubt; form 1)	
1.4	CC[C@H](C)[C@H](NC(=O)[C@H](CCC(=O)O)NC(=O)[C@H](CCC(=O)O)NC(=O)C(Cc1ccc(OP(=O)(O)O)cc1)c1ccccc1O)C(=O)N[C@@H](CCC(=O)O)C(=O)O (some centres not stated)	
20	CC[C@H](C)[C@H](NC(=O)[C@H](CCC(=O)O)NC(=O)[C@H](CCC(=O)O)NC(=O)[C@H](C)Cc1ccc(OP(=O)(O)O)cc1)C(=O)N[C@@H](CCC(=O)O)C(=O)O	
13.4	C[C@H](Cc1ccc(OP(=O)(O)O)cc1)C(=O)NC(CCC(=O)O)C(=O)N[C@@H](Cc1c[nH]c2ccccc12)C(N)=O (some centres not stated)	
40	NC(=O)[C@H](Cc1c[nH]c2ccccc12)NC(=O)C(CCC(=O)O)NC(=O)C(Cc1ccc(OP(=O)(O)O)cc1)c1ccc2ccccc2c1 (some centres not stated)	
4	CC(=O)N[C@@H](Cc1ccc(OP(=O)(O)O)cc1)C(=O)NC(CCC(=O)O)C(=O)N[C@@H](Cc1c[nH]c2ccccc12)C(N)=O (some centres not stated)	
30	NC(=O)[C@H](Cc1c[nH]c2ccccc12)NC(=O)C(CCC(=O)O)NC(=O)C(Cc1ccc(OP(=O)(O)O)cc1)c1cccc2ccccc12 (some centres not stated)	
